Measurements: patent publication US12319694B2, “Heterocyclic nitrogen-containing purine derivatives, pharmaceutical preparations containing these derivatives and their use in neuroprotection” (UNIVERZITA PALACKEHO, priority 2019, dated 2025)

Legend:
[1] = test system: SH-SY5Y human neuroblastoma cell line (differentiated phenotype); assay: Calcein AM viability test on ATRA-differentiated SH-SY5Y cells; format: cell-based; settings: 24 h, DMSO control = 100%
Protocol: (§1) The SH-SY5Y human neuroblastoma cell line obtained as kind gift from Walter d'Acunto (originally purchased from ATCC—American Type Culture Collection (Manassas, VA, USA) was cultivated in Dulbecco's modified Eagle's Medium and Ham's F12 Nutrient Mixture (DMEM:F-12, 1:1), supplemented with 10% fetal bovine serum (FBS) and 1% penicillin and streptomycin at 37° C. in a humidified atmosphere 5% CO2, 95% air in passage limit up to ATCC+15. The assay was performed in 96-well microplate with 7000 SH-SY5Y cells per well. Next day, SH-SY5Y underwent all-trans retinoic acid (ATRA)-differentiation for 48 h (ATRA 10 μM). After 48 h, old DMEM/F12 media was removed by fresh media containing tested compounds at 0.1, 1 and 10 μM concentrations for 24 h. The tested compounds were dissolved in DMSO were added into the medium. The maximum concentration of DMSO in media was kept below 0.1% (v/v). The cell viability was measured by Calcein AM (1 mg/ml ThermoFisher) viability assay. Solution of Calcein AM in PBS (0.5 uM) was pipetted to cells and incubated for 50 minutes. After that the fluorescence was measured at 488/517 nm (excitation/emission) using microplate reader Infinite M200 (TECAN). Calcein AM assay is based on the dye-intracellular-esterase cleavage of non-fluorescent dye (Calcein AM) by living cells to fluorescent dye (Calcein), while dyeing cells that lose such ability. The values in Table 4 show % of viability, relative to control of all tested compounds. The control (medium with DMSO, <0.1% (v/v)) was postulated as 100% viability (see the first line of the table).

[2] = test system: SH-SY5Y human neuroblastoma cell line (differentiated phenotype); assay: Viability test, salsolinol-induced model of Parkinson's disease in differentiated SH-SY5Y (Calcein AM); format: cell-based; settings: 24 h
Protocol: as §1
Similarly, to the previous test the assay was performed in 96-well microplates with 7000 SH-SY5Y cells per well. Day after the seeding of cells, SH-SY5Y underwent all-trans retinoic acid (ATRA)-differentiation for 48 h (ATRA 10 μM). After 48 h, old DMEM/F12 media was removed by fresh media containing 500 μM dopaminergic neurotoxin Salsolinol (SAL) without or with tested compounds at 0.1, 1 and 10 μM concentrations. […] After 24 h the cell viability was measured by Calcein AM viability assay.

[3] = test system: SH-SY5Y human neuroblastoma cell line; assay: Oxidative stress measurement (dihydroethidium, superoxide) in SH-SY5Y, salsolinol-induced model of PD; format: cell-based; settings: 6 h
Protocol: The assay was performed in 96-well microplate with 7000 cells/well. Next day, SH-SY5Y underwent differentiation protocol for 48 h see above. Treatment procedure remained the same as in previous section (Cell treatment and viability/cytotoxicity assays). Additionally, oxidative stress (OS) inducers such as 6-hydroxydopamine (6-OHDA) and glutamate (Glu) alone were used as […]. Negative controls determined threshold of excessive OS. […] After 30 minutes, DHE was read at 500 nm/580 nm (excitation/emission). DHE is cell permeable dye which is selective toward superoxide radical detection.

[4] = Radical scavenging activity by ORAC assay; settings: NAUC relative to trolox; mean ± SD (n = 3)
Protocol: The ability of compounds to scavenge free radicals in vitro was determined by Oxygen Radical Absorbance Capacity (ORAC) method. In brief, fluorescein (100 μL, […]) and 25 μL of tested compound solution were added into each working well in a 96-well microplate preincubated at 37° C. Thereafter, 25 μL of 250 mM 2,2′-azobis(2-amidino-propan)dihydrochloride (AAPH) was quickly added, microplate was shaken for 5 s and the fluorescence (Ex. 485 nm, Em. 510 nm) was read every 3 min over 90 min by using microplate reader Infinite 200 (TECAN, Switzerland). The NAUC value (Net Area Under Curve) was used to express antioxidant activity relative to trolox (hydrophilic equivalent of vitamin E postulated as a standard). Substances with an ORAC value greater than 0 actively trap free radicals.

Nrf2 = assay: Activation of Nrf2-dependent expression, EpRE-LUX reporter cell line; format: cell-based; settings: 24 h; tested at 100, 10, 1 and 0.1 μM, concentration of the printed value not stated; mean ± SD (n = 3)
Protocol: The ability of compounds to activate Nrf2-dependent expression was determined by EpRE-LUX reporter cell line. In brief, compounds at 100, 10, 1 and 0.1 μM concentrations of the tested compounds were incubated for 24 h with the cells. After cells lysis (10 mM Tris, 2 mM DTT), a buffer containing 0.2 mM luciferin was added to start luminescent reaction. The increase in luminescence was measured with microplate reader Infinite M200 (TECAN). Compounds with Nrf2 value higher than 0 are strong Nrf2 activators and thus will be useful agents for the treatment of neurodegenerative diseases associated with oxidative stress.

[5] = 0.1 μM compound with 500 μM Salsolinol
[6] = 1 μM compound with 500 μM Salsolinol
[7] = 10 μM compound with 500 μM Salsolinol

SMILES	% of viability, relative to control ([1]; 0.1 μM compound) [%]	% of viability, relative to control ([1]; 1 μM compound) [%]	% of viability, relative to control ([1]; 10 μM compound) [%]	Neuroprotective effect (% of control) [2, 5]	Neuroprotective effect (% of control) [2, 6]	Neuroprotective effect (% of control) [2, 7]	Oxidative stress (% of control) ([3]; 1 μM compound with SAL 500 μM)	Oxidative stress (% of control) ([3]; 10 μM compound with SAL 500 μM)	ORAC (compound/trolox) [4] [compound/trolox]	Nrf2 (relative luminiscence) (Nrf2)
c1ccc(Cn2cnc3c(N4CCC4)nc(N4CCC4)nc32)cc1 [Compound 1]	104.80	114.03	145.94	N/A (N/A = no protection)	3.03 % of control	26.08 % of control	124.48 % of control	157.22 % of control	0.052 ± 0.002	0.27 ± 0.06
COc1ccccc1Cn1cnc2c(N3CCCC3)nc(N3CCCC3)nc21 [Compound 35]	104.22	118.77	135.02	1.19 % of control	13.01 % of control	19.11 % of control	161.97 % of control	214.57 % of control	0.033 ± 0.001	0.04 ± 0.00
COc1cccc(Cn2cnc3c(N4CCCC4)nc(N4CCCC4)nc32)c1 [Compound 42]	112.01	127.94	138.52	6.86 % of control	15.44 % of control	20.05 % of control	171.55 % of control	173.94 % of control	0.029 ± 0.002	0.00 ± 0.00
